Test results as given in PubChem BioAssay (NCI).
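Method: 48-hour compound exposure of cells in 96-well plates, five concentrations, linear interpolation of endpoints. The concentration for full growth arrest is given as TGI.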

Legend:
Test in all cases: inhibition of tumour cell growth, NCI panel, 48 h
KM12 colon = test system: KM12 colon
OVCAR-8 ovarian = test system: OVCAR-8 ovarian
786-0 renal = test system: 786-0 renal
M14 melanoma = test system: M14 melanoma
K-562 leukemia = test system: K-562 leukemia
DMS 273 small cell lung = test system: DMS 273 small cell lung
SN12C renal = test system: SN12C renal
OVCAR-5 ovarian = test system: OVCAR-5 ovarian
MOLT-4 leukemia = test system: MOLT-4 leukemia
M19-MEL melanoma = test system: M19-MEL melanoma
SR leukemia = test system: SR leukemia
TK-10 renal = test system: TK-10 renal
OVCAR-3 ovarian = test system: OVCAR-3 ovarian
RXF 393 renal = test system: RXF 393 renal
HCT-116 colon = test system: HCT-116 colon
SF-268 CNS = test system: SF-268 CNS
SNB-78 CNS = test system: SNB-78 CNS
HCT-15 colon = test system: HCT-15 colon
HOP-18 NSCLC = test system: HOP-18 NSCLC
SK-MEL-2 melanoma = test system: SK-MEL-2 melanoma
SNB-75 CNS = test system: SNB-75 CNS
RPMI-8226 leukemia = test system: RPMI-8226 leukemia
DMS 114 small cell lung = test system: DMS 114 small cell lung
HOP-92 NSCLC = test system: HOP-92 NSCLC
UO-31 renal = test system: UO-31 renal
NCI-H522 lung = test system: NCI-H522 lung
NCI-H23 lung = test system: NCI-H23 lung
COLO 205 colon = test system: COLO 205 colon
CAKI-1 renal = test system: CAKI-1 renal
HL-60(TB) leukemia = test system: HL-60(TB) leukemia
IGROV1 ovarian = test system: IGROV1 ovarian
SNB-19 CNS = test system: SNB-19 CNS
UACC-257 melanoma = test system: UACC-257 melanoma
SF-295 CNS = test system: SF-295 CNS
MALME-3M melanoma = test system: MALME-3M melanoma
A498 renal = test system: A498 renal
SK-MEL-28 melanoma = test system: SK-MEL-28 melanoma
DLD-1 colon = test system: DLD-1 colon
CCRF-CEM leukemia = test system: CCRF-CEM leukemia
OVCAR-4 ovarian = test system: OVCAR-4 ovarian
SK-OV-3 ovarian = test system: SK-OV-3 ovarian
HT29 colon = test system: HT29 colon
SF-539 CNS = test system: SF-539 CNS
LOX IMVI melanoma = test system: LOX IMVI melanoma
LXFL 529 NSCLC = test system: LXFL 529 NSCLC
UACC-62 melanoma = test system: UACC-62 melanoma
ACHN renal = test system: ACHN renal
SW-620 colon = test system: SW-620 colon
NCI-H460 lung = test system: NCI-H460 lung
A549 NSCLC = test system: A549 NSCLC
HOP-62 NSCLC = test system: HOP-62 NSCLC
U251 CNS = test system: U251 CNS
SK-MEL-5 melanoma = test system: SK-MEL-5 melanoma
XF 498 CNS = test system: XF 498 CNS
EKVX NSCLC = test system: EKVX NSCLC
HCC-2998 colon = test system: HCC-2998 colon
NCI-H226 lung = test system: NCI-H226 lung
KM20L2 colon = test system: KM20L2 colon
RXF-631 renal = test system: RXF-631 renal

Structure (SMILES): O=C1NC2(CCCCC2)C2CCCCC=C12 (configuration not stated)
- TGI (KM12 colon): > 100 µM
- TGI (OVCAR-8 ovarian): > 100 µM
- TGI (786-0 renal): > 100 µM
- TGI (M14 melanoma): > 100 µM
- TGI (K-562 leukemia): > 100 µM
- TGI (DMS 273 small cell lung): > 100 µM
- TGI (SN12C renal): > 100 µM
- TGI (OVCAR-5 ovarian): > 100 µM
- TGI (MOLT-4 leukemia): > 100 µM
- TGI (M19-MEL melanoma): > 100 µM
- TGI (SR leukemia): > 100 µM
- TGI (TK-10 renal): > 100 µM
- TGI (OVCAR-3 ovarian): > 100 µM
- TGI (RXF 393 renal): > 100 µM
- TGI (HCT-116 colon): > 100 µM
- TGI (SF-268 CNS): > 100 µM
- TGI (SNB-78 CNS): > 100 µM
- TGI (HCT-15 colon): > 100 µM
- TGI (HOP-18 NSCLC): > 100 µM
- TGI (SK-MEL-2 melanoma): > 100 µM
- TGI (SNB-75 CNS): > 100 µM
- TGI (RPMI-8226 leukemia): > 100 µM
- TGI (DMS 114 small cell lung): > 100 µM
- TGI (HOP-92 NSCLC): > 100 µM
- TGI (UO-31 renal): > 100 µM
- TGI (NCI-H522 lung): > 100 µM
- TGI (NCI-H23 lung): > 100 µM
- TGI (COLO 205 colon): > 100 µM
- TGI (CAKI-1 renal): > 100 µM
- TGI (HL-60(TB) leukemia): > 100 µM
- TGI (IGROV1 ovarian): > 100 µM
- TGI (SNB-19 CNS): > 100 µM
- TGI (UACC-257 melanoma): > 100 µM
- TGI (SF-295 CNS): > 100 µM
- TGI (MALME-3M melanoma): > 100 µM
- TGI (A498 renal): > 100 µM
- TGI (SK-MEL-28 melanoma): > 100 µM
- TGI (DLD-1 colon): > 100 µM
- TGI (CCRF-CEM leukemia): > 100 µM
- TGI (OVCAR-4 ovarian): > 100 µM
- TGI (SK-OV-3 ovarian): > 100 µM
- TGI (HT29 colon): > 100 µM
- TGI (SF-539 CNS): > 100 µM
- TGI (LOX IMVI melanoma): > 100 µM
- TGI (LXFL 529 NSCLC): > 100 µM
- TGI (UACC-62 melanoma): > 100 µM
- TGI (ACHN renal): > 100 µM
- TGI (SW-620 colon): > 100 µM
- TGI (NCI-H460 lung): > 100 µM
- TGI (A549 NSCLC): > 100 µM
- TGI (HOP-62 NSCLC): > 100 µM
- TGI (U251 CNS): > 100 µM
- TGI (SK-MEL-5 melanoma): > 100 µM
- TGI (XF 498 CNS): > 100 µM
- TGI (EKVX NSCLC): > 100 µM

Structure (SMILES): COc1ccc(/C=N/N=C(\N)NO)cc1F
- TGI (KM12 colon): > 100 µM
- TGI (HCC-2998 colon): > 100 µM
- TGI (OVCAR-8 ovarian): > 100 µM
- TGI (786-0 renal): 48.5 µM
- TGI (M14 melanoma): 33.3 µM
- TGI (K-562 leukemia): 56.4 µM
- TGI (DMS 273 small cell lung): 84.4 µM
- TGI (SN12C renal): > 100 µM
- TGI (OVCAR-5 ovarian): 97.2 µM
- TGI (MOLT-4 leukemia): > 100 µM
- TGI (M19-MEL melanoma): 72.3 µM
- TGI (SR leukemia): 86.5 µM
- TGI (TK-10 renal): > 100 µM
- TGI (OVCAR-3 ovarian): > 100 µM
- TGI (RXF 393 renal): 73.2 µM
- TGI (HCT-116 colon): > 100 µM
- TGI (SF-268 CNS): 66.7 µM
- TGI (SNB-78 CNS): > 100 µM
- TGI (HCT-15 colon): > 100 µM
- TGI (HOP-18 NSCLC): 90.5 µM
- TGI (SK-MEL-2 melanoma): > 100 µM
- TGI (SNB-75 CNS): 89.5 µM
- TGI (RPMI-8226 leukemia): > 100 µM
- TGI (HOP-92 NSCLC): 76.2 µM
- TGI (NCI-H226 lung): 41.4 µM
- TGI (UO-31 renal): 39.6 µM
- TGI (NCI-H522 lung): 87.1 µM
- TGI (NCI-H23 lung): 81 µM
- TGI (COLO 205 colon): > 100 µM
- TGI (CAKI-1 renal): 46.5 µM
- TGI (HL-60(TB) leukemia): > 100 µM
- TGI (IGROV1 ovarian): > 100 µM
- TGI (SNB-19 CNS): > 100 µM
- TGI (KM20L2 colon): > 100 µM
- TGI (UACC-257 melanoma): > 100 µM
- TGI (SF-295 CNS): 87.6 µM
- TGI (MALME-3M melanoma): > 100 µM
- TGI (SK-MEL-28 melanoma): > 100 µM
- TGI (DLD-1 colon): > 100 µM
- TGI (CCRF-CEM leukemia): > 100 µM
- TGI (OVCAR-4 ovarian): > 100 µM
- TGI (SK-OV-3 ovarian): > 100 µM
- TGI (HT29 colon): 38.3 µM
- TGI (SF-539 CNS): 60.1 µM
- TGI (LOX IMVI melanoma): 48.7 µM
- TGI (LXFL 529 NSCLC): > 100 µM
- TGI (UACC-62 melanoma): 36.3 µM
- TGI (ACHN renal): 45.3 µM
- TGI (SW-620 colon): > 100 µM
- TGI (RXF-631 renal): > 100 µM
- TGI (NCI-H460 lung): > 100 µM
- TGI (A549 NSCLC): 85.6 µM
- TGI (HOP-62 NSCLC): 72.5 µM
- TGI (U251 CNS): > 100 µM
- TGI (SK-MEL-5 melanoma): 18.5 µM
- TGI (XF 498 CNS): 96 µM
- TGI (EKVX NSCLC): > 100 µM
